Reference: ChEMBL document CHEMBL1255353, “Antistreptococcal activity of AR-709 compared to that of other agents” (2008)
≈ marks a conversion by molar mass, not a printed value.

Columns and labels:
Assay type in all cases: functional
[1] = system: Streptococcus pneumoniae; test: Antimicrobial activity against quinolone-susceptible Streptococcus pneumoniae by agar dilution method
[2] = system: Streptococcus pneumoniae; test: Antimicrobial activity against trimethoprim-sulfamethoxazole-susceptible Streptococcus pneumoniae by agar dilution method
[3] = system: Streptococcus pneumoniae; test: Antimicrobial activity against macrolide-resistant Streptococcus pneumoniae by agar dilution method
[4] = system: Streptococcus sp. 'group A'; test: Antimicrobial activity against macrolide-susceptible Streptococcus sp. 'group A' by agar dilution method
[5] = system: Streptococcus sp. 'group A'; test: Antimicrobial activity against macrolide-resistant Streptococcus sp. 'group A' by agar dilution method
[6] = system: Streptococcus pneumoniae; test: Antimicrobial activity against quinolone-resistant Streptococcus pneumoniae by agar dilution method
[7] = system: Streptococcus pneumoniae; test: Antimicrobial activity against penicillin-intermediate Streptococcus pneumoniae by agar dilution method
[8] = system: Streptococcus pneumoniae; test: Antimicrobial activity against macrolide-susceptible Streptococcus pneumoniae by agar dilution method
[9] = system: Streptococcus pneumoniae; test: Antimicrobial activity against Streptococcus pneumoniae assessed as time required to show antibiotic effect
[10] = system: Streptococcus pneumoniae; test: Antimicrobial activity against penicillin-resistant Streptococcus pneumoniae by agar dilution method
[11] = system: Streptococcus pneumoniae; test: Antimicrobial activity against trimethoprim-sulfamethoxazole-resistant Streptococcus pneumoniae by agar dilution method
[12] = system: Streptococcus pneumoniae; test: Antimicrobial activity against penicillin-susceptible Streptococcus pneumoniae by agar dilution method
[13] = system: Streptococcus pneumoniae; test: Antimicrobial activity against macrolide-susceptible Streptococcus pneumoniae by agar dilution method in presence of […] clavulanic acid
[14] = system: Streptococcus pneumoniae; test: Antimicrobial activity against quinolone-resistant Streptococcus pneumoniae by agar dilution method in presence of […] clavulanic acid
[15] = system: Streptococcus pneumoniae; test: Antimicrobial activity against macrolide-resistant Streptococcus pneumoniae by agar dilution method in presence of […] clavulanic acid
[16] = system: Streptococcus pneumoniae; test: Antimicrobial activity against trimethoprim-sulfamethoxazole-susceptible Streptococcus pneumoniae by agar dilution method in presence of […] clavulanic acid
[17] = system: Streptococcus pneumoniae; test: Antimicrobial activity against trimethoprim-sulfamethoxazole-resistant Streptococcus pneumoniae by agar dilution method in presence of […] clavulanic acid
[18] = system: Streptococcus pneumoniae; test: Antimicrobial activity against penicillin-resistant Streptococcus pneumoniae by agar dilution method in presence of […] clavulanic acid
[19] = system: Streptococcus pneumoniae; test: Antimicrobial activity against penicillin-susceptible Streptococcus pneumoniae by agar dilution method in presence of […] clavulanic acid
[20] = system: Streptococcus sp. 'group A'; test: Antimicrobial activity against macrolide-susceptible Streptococcus sp. 'group A' by agar dilution method in presence of […] clavulanic acid
[21] = system: Streptococcus pneumoniae; test: Antimicrobial activity against penicillin-intermediate Streptococcus pneumoniae by agar dilution method in presence of […] clavulanic acid
[22] = system: Streptococcus pneumoniae; test: Antimicrobial activity against quinolone-susceptible Streptococcus pneumoniae by agar dilution method in presence of […] clavulanic acid

In the case of COc1cc(Cc2cnc(N)nc2N)c2cc(Cc3c(C(=O)N(C)C)[nH]c4ccc(Cl)cc34)oc2c1OC, the MIC50 [1] is reported as 0.12 µg/mL (≈ 0.224 µM), the MIC90 [1] is reported as 0.5 µg/mL (≈ 0.935 µM) and the MIC50 [2] is reported as 0.06 µg/mL (≈ 0.112 µM). It also gave an MIC90 [2] of 0.12 µg/mL (≈ 0.224 µM), an MIC50 [3] of 0.25 µg/mL (≈ 0.467 µM) and an MIC90 [3] of 0.5 µg/mL (≈ 0.935 µM). The MIC50 [4] was 0.06 µg/mL (≈ 0.112 µM), the MIC90 [4] was 0.06 µg/mL (≈ 0.112 µM) and the MIC50 [5] was 0.016 µg/mL (≈ 0.0299 µM). For the same molecule, the MIC90 [5] was 0.03 µg/mL (≈ 0.0561 µM), the MIC50 [6] was 0.25 µg/mL (≈ 0.467 µM) and the MIC90 [6] was 1 µg/mL (≈ 1.87 µM). It also gave an MIC50 [7] of 0.25 µg/mL (≈ 0.467 µM), an MIC90 [7] of 0.5 µg/mL (≈ 0.935 µM) and an MIC50 [8] of 0.12 µg/mL (≈ 0.224 µM). The MIC90 [8] was 0.5 µg/mL (≈ 0.935 µM), the Time [9] was “>=1.1 hr” and the MIC50 [10] was 0.25 µg/mL (≈ 0.467 µM). The MIC90 [10] was 1 µg/mL (≈ 1.87 µM), the MIC50 [11] was 0.25 µg/mL (≈ 0.467 µM) and the MIC90 [11] was 0.5 µg/mL (≈ 0.935 µM). The MIC50 [12] was 0.06 µg/mL (≈ 0.112 µM) and the MIC90 [12] was 0.25 µg/mL (≈ 0.467 µM).
CC1(C)S[C@@H]2[C@H](NC(=O)[C@H](N)c3ccc(O)cc3)C(=O)N2[C@H]1C(=O)O [AMOXICILLIN] gave an MIC50 [13] of 0.06 µg/mL, an MIC90 [13] of 1 µg/mL and an MIC50 [14] of 0.5 µg/mL. For the same molecule, the MIC90 [14] was 2 µg/mL, the MIC50 [15] was 0.12 µg/mL and the MIC90 [15] was 4 µg/mL. It also gave an MIC50 [16] of 0.03 µg/mL, an MIC90 [16] of 0.12 µg/mL and an MIC50 [17] of 0.5 µg/mL. It also gave an MIC90 [17] of 4 µg/mL, an MIC50 [18] of 2 µg/mL and an MIC90 [18] of 4 µg/mL. The MIC [19] was at most 0.016 µg/mL, the MIC50 [19] was at most 0.016 µg/mL and the MIC90 [19] was 0.03 µg/mL. For the same molecule, the MIC [20] was at most 0.016 µg/mL, the MIC50 [20] was at most 0.016 µg/mL and the MIC90 [20] was at most 0.016 µg/mL. The MIC50 [21] was 0.12 µg/mL, the MIC90 [21] was 1 µg/mL and the MIC50 [22] was 0.12 µg/mL. It also gave an MIC90 [22] of 2 µg/mL.
Molecule CC[C@H]1OC(=O)[C@H](C)[C@@H](O[C@H]2C[C@@](C)(OC)[C@@H](O)[C@H](C)O2)[C@H](C)[C@@H](O[C@@H]2O[C@H](C)C[C@H](N(C)C)[C@H]2O)[C@](C)(O)C[C@@H](C)CN(C)[C@H](C)[C@@H](O)[C@]1(C)O [AZITHROMYCIN] has an MIC50 [1] of 4 µg/mL (≈ 5.34 µM), an MIC90 [1] of over 64 µg/mL and an MIC50 [2] of 0.12 µg/mL (≈ 0.16 µM). The MIC90 [2] was over 64 µg/mL, the MIC50 [3] was over 64 µg/mL and the MIC50 [4] was 0.12 µg/mL (≈ 0.16 µM). The MIC90 [4] was 0.25 µg/mL (≈ 0.334 µM), the MIC50 [5] was over 64 µg/mL and the MIC90 [5] was over 64 µg/mL. The MIC50 [6] was 0.12 µg/mL (≈ 0.16 µM), the MIC50 [7] was 0.12 µg/mL (≈ 0.16 µM) and the MIC90 [7] was over 64 µg/mL. For the same molecule, the MIC50 [8] was 0.12 µg/mL (≈ 0.16 µM), the MIC90 [8] was 0.12 µg/mL (≈ 0.16 µM) and the MIC50 [10] was 8 µg/mL (≈ 10.7 µM). For the same molecule, the MIC50 [11] was 8 µg/mL (≈ 10.7 µM), the MIC50 [12] was 0.12 µg/mL (≈ 0.16 µM) and the MIC90 [12] was over 64 µg/mL.
CO/N=C(\C(=O)N[C@@H]1C(=O)N2C(C(=O)O)=C(COC(N)=O)CS[C@H]12)c1ccco1 [CEFUROXIME] gave an MIC50 [1] of 0.25 µg/mL (≈ 0.589 µM), an MIC90 [1] of 4 µg/mL (≈ 9.43 µM) and an MIC50 [2] of 0.03 µg/mL (≈ 0.0707 µM). For the same molecule, the MIC90 [2] was 0.5 µg/mL (≈ 1.18 µM), the MIC50 [3] was 0.5 µg/mL (≈ 1.18 µM) and the MIC90 [3] was 8 µg/mL (≈ 18.9 µM). For the same molecule, the MIC [4] was 0.016 µg/mL (≈ 0.0377 µM), the MIC50 [4] was 0.016 µg/mL (≈ 0.0377 µM) and the MIC90 [4] was 0.016 µg/mL (≈ 0.0377 µM). For the same molecule, the MIC [5] was 0.016 µg/mL (≈ 0.0377 µM), the MIC50 [5] was 0.016 µg/mL (≈ 0.0377 µM) and the MIC90 [5] was 0.03 µg/mL (≈ 0.0707 µM). The MIC50 [6] was 2 µg/mL (≈ 4.71 µM), the MIC90 [6] was 8 µg/mL (≈ 18.9 µM) and the MIC50 [7] was 0.25 µg/mL (≈ 0.589 µM). For the same molecule, the MIC90 [7] was 4 µg/mL (≈ 9.43 µM), the MIC50 [8] was 0.25 µg/mL (≈ 0.589 µM) and the MIC90 [8] was 4 µg/mL (≈ 9.43 µM). It also gave an MIC50 [10] of 4 µg/mL (≈ 9.43 µM), an MIC90 [10] of 16 µg/mL (≈ 37.7 µM) and an MIC50 [11] of 2 µg/mL (≈ 4.71 µM). It also gave an MIC90 [11] of 8 µg/mL (≈ 18.9 µM), an MIC50 [12] of 0.03 µg/mL (≈ 0.0707 µM) and an MIC90 [12] of 0.12 µg/mL (≈ 0.283 µM).
O=C(O)c1cn(C2CC2)c2cc(N3CCNCC3)c(F)cc2c1=O [CIPROFLOXACIN] was tested, and the MIC50 [1] was 1 µg/mL (≈ 3.02 µM), the MIC90 [1] was 2 µg/mL (≈ 6.04 µM) and the MIC50 [3] was 1 µg/mL (≈ 3.02 µM). It also gave an MIC90 [3] of 4 µg/mL (≈ 12.1 µM), an MIC [4] of 0.5 µg/mL (≈ 1.51 µM) and an MIC50 [4] of 0.5 µg/mL (≈ 1.51 µM). For the same molecule, the MIC90 [4] was 1 µg/mL (≈ 3.02 µM), the MIC50 [5] was 0.5 µg/mL (≈ 1.51 µM) and the MIC90 [5] was 2 µg/mL (≈ 6.04 µM). It also gave an MIC50 [6] of 32 µg/mL (≈ 96.6 µM), an MIC90 [6] of over 32 µg/mL and an MIC50 [7] of 1 µg/mL (≈ 3.02 µM). The MIC90 [7] was 4 µg/mL (≈ 12.1 µM), the MIC50 [11] was 1 µg/mL (≈ 3.02 µM) and the MIC90 [11] was 4 µg/mL (≈ 12.1 µM).
C[C@H]1COc2c(N3CCN(C)CC3)c(F)cc3c(=O)c(C(=O)O)cn1c23.C[C@H]1COc2c(N3CCN(C)CC3)c(F)cc3c(=O)c(C(=O)O)cn1c23.O [LEVOFLOXACIN] showed an MIC50 [1] of 1 µg/mL, an MIC90 [1] of 1 µg/mL and an MIC50 [2] of 1 µg/mL. For the same molecule, the MIC90 [2] was 2 µg/mL, the MIC50 [3] was 1 µg/mL and the MIC90 [3] was 2 µg/mL. It also gave an MIC [4] of 0.5 µg/mL, an MIC50 [4] of 0.5 µg/mL and an MIC90 [4] of 2 µg/mL. For the same molecule, the MIC50 [5] was 0.5 µg/mL, the MIC90 [5] was 1 µg/mL and the MIC50 [6] was 16 µg/mL. The MIC90 [6] was 16 µg/mL, the MIC50 [7] was 1 µg/mL and the MIC90 [7] was 2 µg/mL. The MIC50 [8] was 1 µg/mL, the MIC90 [8] was 8 µg/mL and the MIC50 [10] was 1 µg/mL. It also gave an MIC90 [10] of 4 µg/mL, an MIC50 [11] of 1 µg/mL and an MIC90 [11] of 2 µg/mL. It also gave an MIC50 [12] of 1 µg/mL and an MIC90 [12] of 8 µg/mL.
Molecule CC1(C)S[C@@H]2[C@H](NC(=O)Cc3ccccc3)C(=O)N2[C@H]1C(=O)O [PENICILLIN G] has an MIC [1] of 0.12 µg/mL (≈ 0.359 µM), an MIC50 [1] of 0.12 µg/mL (≈ 0.359 µM) and an MIC90 [1] of 2 µg/mL (≈ 5.98 µM). It also gave an MIC50 [2] of 0.03 µg/mL (≈ 0.0897 µM), an MIC90 [2] of 0.25 µg/mL (≈ 0.748 µM) and an MIC50 [3] of 0.25 µg/mL (≈ 0.748 µM). For the same molecule, the MIC90 [3] was 4 µg/mL (≈ 12 µM), the MIC50 [6] was 0.5 µg/mL (≈ 1.5 µM) and the MIC90 [6] was 2 µg/mL (≈ 5.98 µM). For the same molecule, the MIC50 [7] was 0.25 µg/mL (≈ 0.748 µM), the MIC90 [7] was 1 µg/mL (≈ 2.99 µM) and the MIC50 [8] was 0.12 µg/mL (≈ 0.359 µM). The MIC90 [8] was 2 µg/mL (≈ 5.98 µM), the MIC [10] was 2 µg/mL (≈ 5.98 µM) and the MIC50 [10] was 2 µg/mL (≈ 5.98 µM). The MIC90 [10] was 4 µg/mL (≈ 12 µM), the MIC50 [11] was 1 µg/mL (≈ 2.99 µM) and the MIC90 [11] was 4 µg/mL (≈ 12 µM). The MIC50 [12] was 0.016 µg/mL (≈ 0.0478 µM) and the MIC90 [12] was 0.06 µg/mL (≈ 0.179 µM).
